Where “and” joins values, the source holds several entries; their conditions need not be identical. Identical values can stand only once. Like-named read-outs stand apart in the source and are kept apart here.
Key:
[1] = target: T1, GB1-FRS2-PTB (Homo sapiens, UniProt Q8WU20); assay: Microscale thermophoresis (MST); format: binding
T1 construct: FRS2-PTB 11-140aa; 6xHis (N); made in house; host or cells: E. coli BL21 (DE3)
T1 sequence (Q8WU20 11-140): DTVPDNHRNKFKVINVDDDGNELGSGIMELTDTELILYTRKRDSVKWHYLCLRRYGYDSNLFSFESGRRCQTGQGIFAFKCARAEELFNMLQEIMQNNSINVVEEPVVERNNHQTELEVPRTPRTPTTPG
Description: Protein labeling for MST was performed with the 2nd Generation BLUE-NHS dye. GB1-FRS2_PTB- was labelled at 20 μM with 60 μM dye and incubated for 30 min in the dark at room temperature. The labelling was performed in the protein buffer without arginine supplementation. It was rebuffered to protein buffer (100 mM sodium phosphate, 50 mM NaCl, 0.5 mM EDTA, 50 mM arginine, 1 mM TCEP, pH 7.0). The dye was subsequently removed by gravitational flow chromatography and the protein concentration determined by UV-spectroscopy. The assay was established with the FGFR_PEP. […] A total volume of 10 μl of 50 nM labelled protein was added to 10 μl of the peptide dilution series for a final labelled protein concentration of 25 nM. The samples were incubated for 15 min at RT. […] Temperature was set to 25 °C. Each measurement was repeated twice. The interaction was measured in duplicates for the non-DMSO-supplemented buffer and in triplicates for DMSO-supplemented buffer. […] The samples were incubated for 15 min, and MST assessed as described above. Each measurement was repeated twice. The interaction was measured in two independent duplicates. […] The mixture was then measured for their initial fluorescence once. MST-experiments were performed with MO.Control vers. 1.6 (NanoTemper Technologies, Munich, Germany) and data analyzed with MO.Analysis vers. 2.3 (NanoTemper Technologies, Munich, Germany). Data was plotted with GraphPad Prism vers. 8.3.0 (GraphPad Software, San Diego, USA).

[2] = tested on: bFGF-sensitive (M059K, RT-112, SW780) and bFGF-insensitive (SKOV3, AGS and HCT116) cell lines; assay: SIA, collagen I invasion in panel of human cancer cell models; format: cell-based; conditions: 10 µM
Description: 1000—2500 cells/well in 100 μl were seeded in 96 well Corning® Spheroid microplate (CLS4520, Sigma-Aldrich) or in cell-repellent 96 well microplate (650,790, Greiner Bio-one). SIA and analysis was performed as described before. In brief: After spheroid formation (24 – 72 h after seeding), 70 µl medium was removed and replaced with the collagen mixture (2.5 mg/ml Pure Col Collagen I (Advanced Biomatrix)), DMEM 1x (from 10 × stock, Sigma, D2429) and 0.4% Sodium bicarbonate (Sigma, S8761)), resulting in a final collagen concentration of 1.75 mg/ml. Embedded spheroids were stimulated with bFGF (100 ng/ml if not otherwise stated), HGF (30 ng /ml) or EGF (20 ng/ml) and distance of invaded cells quantified 24 – 48 h after embedding. Compounds and BGJ398 were added in Dimethylsulfoxid (DMSO) and corresponding DMSO concentrations were used in control samples.

[3] = In vivo bioavailability / PK after 1 mg/kg IV or 10 mg/kg PO; parameters: species or system Male ICR mice
Description: In vivo bioavailability studies were performed by Pharmacology Discovery Services Taiwan, Ltd., (New Taipei City, Taiwan). Male ICR mice weighing 20—30 g were provided by BioLasco Taiwan (under Charles River Laboratories Licensee). Animals were acclimated for 3 days prior to use and were confirmed with good health. All animals were maintained in a hygienic environment with controlled temperature (20—24 °C), humidity (30%—70%) and 12 h light/dark cycles. Free access to sterilized standard lab diet [MFG (Oriental Yeast Co., Ltd., Japan)] and autoclaved tap water. A pharmacokinetic (PK) study was performed in male ICR mice following intravenous (IV) and oral (PO) administration of compound 7 and E12 and IV administration of the test compound 3.14. The three test compounds (7, E12 and 3.14) were formulated in 1% dimethyl sulfoxide (DMSO)/10% Solutol® HS-15/ phosphate buffered saline (PBS) at 0.2 mg/mL and 1 mg/mL for IV and PO administration, respectively. The dosing volumes were 5 ml/kg for IV and 10 ml/kg for PO. The dose was 1 mg/kg for IV and 10 mg/kg for PO routes.

[4] = 10 mg/kg PO, time 0.167 h, mouse#1-3
[5] = 10 mg/kg PO, time 0.5 h, mouse#1-3
[6] = 10 mg/kg PO, time 1 h, mouse#1-3
[7] = 10 mg/kg PO, time 2 h, mouse#1-3
[8] = 10 mg/kg PO, time 4 h, mouse#1-3
[9] = 10 mg/kg PO, time 6 h, mouse#1-3
[10] = 10 mg/kg PO, time 8 h, mouse#1-3
[11] = 10 mg/kg PO, time 24 h, mouse#1-3
[12] = male, ICR, mouse, plasma, 1 mg/kg, IV
[13] = male, ICR, mouse, plasma, 10 mg/kg, PO
[14] = mg/kg IV, time 0.167 h, mouse#1-3
[15] = mg/kg IV, time 0.5 h, mouse#1-3

## COc1ncc(C(C)NC2CC(C)(C)NC(C)(C)C2)cc1Cl (centres unmarked) [Compound 3.3]
[1]; GB1-FRS2_PTB, read-out: KD, initial fluorescence change analysis
  Kd: 3.1 µM and 4 µM
[1]; signal:noise ratio > 5 counts as binding
  binding by MST trace analysis (result in words): no binding was detected
[2]
  collagen I invasion across cancer cell lines (result in words): significant repression of collagen I invasion only in SKOV3 and M059K cells

## Cc1[nH]nc(-c2ccc(O)c(C)c2O)c1-c1nc2ccccc2s1 [Compound E12]
[3]; 1 mg/kg, IV
  AUC Extr (%): 0.5%
[3]; [4]
  in vivo PK raw, level per mouse: 13 and 10 and 15
  in vivo PK raw, level per mouse (µM): 0.02964 µM and 0.04446 µM
[3]; [5]
  in vivo PK raw, level per mouse: 16 and 11 and 3
  in vivo PK raw, level per mouse (µM): 0.04742 µM and 0.0326 µM and 0.008892 µM
[3]; [6]
  in vivo PK raw, level per mouse: 1 and 2 and 10
  in vivo PK raw, level per mouse (µM): 0.002964 µM and 0.005928 µM and 0.02964 µM
[3]; [7]
  in vivo PK raw, level per mouse: 3 and 0 and 2
  in vivo PK raw, level per mouse (µM): 0.008892 µM and 0 µM and 0.005928 µM
[3]; [8]
  in vivo PK raw, level per mouse: 5 and 2 (2×)
  in vivo PK raw, level per mouse (µM): 0.01482 µM and 0.005928 µM (2×)
[3]; [9]
  in vivo PK raw, level per mouse: 0 (2×) and 2
  in vivo PK raw, level per mouse (µM): 0 µM (2×) and 0.005928 µM
[3]; [10]
  in vivo PK raw, level per mouse: 1
  in vivo PK raw, level per mouse (µM): 0.002964 µM
[3]; [11]
  in vivo PK raw, level per mouse: 0
  in vivo PK raw, level per mouse (µM): 0 µM
[3]; 10 mg/kg, PO
  AUC Extr (%): 14.8%
  AUC/D: 3 kg·ng·h/mL/mg
  AUClast (H*ng/ml): 22 H*ng/ml
[3]; male, ICR, mouse, plasma, iv, 1 mg/kg, IV, read-out: AUClast
  AUC(0-t): 85 ng·h/mL
[3]; male, ICR, mouse, plasma, iv, 1 mg/kg, mg/kg IV, time 0.167 h, mouse#1-3, read-out: in vivo PK raw, level per mouse
  concentration at 0.167 h: 1360 nM
[3]; male, ICR, mouse, plasma, iv, 1 mg/kg, mg/kg IV, time 0.5 h, mouse#1-3, read-out: in vivo PK raw, level per mouse
  concentration at 0.5 h: 305 nM
[3]; male, ICR, mouse, plasma, iv, 1 mg/kg, mg/kg IV, time 1 h, mouse#1-3, read-out: in vivo PK raw, level per mouse
  concentration at 1 h: 29.6 nM
[3]; male, ICR, mouse, plasma, iv, 1 mg/kg, mg/kg IV, time 2 h, mouse#1-3, read-out: in vivo PK raw, level per mouse
  concentration at 2 h: 5.93 nM
[3]; male, ICR, mouse, plasma, iv, 1 mg/kg, mg/kg IV, time 4 h, mouse#1-3, read-out: in vivo PK raw, level per mouse
  concentration at 4 h: 0 nM
[3]; male, ICR, mouse, plasma, iv, 1 mg/kg, mg/kg IV, time 6 h, mouse#1-3, read-out: in vivo PK raw, level per mouse
  concentration at 6 h: 0 nM
[3]; male, ICR, mouse, plasma, iv, 1 mg/kg, mg/kg IV, time 8 h, mouse#1-3, read-out: in vivo PK raw, level per mouse
  concentration at 8 h: 0 nM
[3]; male, ICR, mouse, plasma, iv, 1 mg/kg, mg/kg IV, time 24 h, mouse#1-3, read-out: in vivo PK raw, level per mouse
  concentration at 24 h: 0 nM
[3]; male, ICR, mouse, plasma, iv, 1 mg/kg, mice, 1 mg/kg IV, read-out: AUClast after IV administration
  AUC(0-t): 85 ng·h/mL
[3]; male, ICR, mouse, plasma, oral, 10 mg/kg, 10 mg/kg PO, time 0.167 h, mouse#1-3, read-out: in vivo PK raw, level per mouse
  concentration at 0.167 h: 38.5 nM
[3]; male, ICR, mouse, plasma, oral, 10 mg/kg, 10 mg/kg PO, time 8 h, mouse#1-3, read-out: in vivo PK raw, level per mouse
  concentration at 8 h: 2.96 nM
[3]; male, ICR, mouse, plasma, oral, 10 mg/kg, 10 mg/kg PO, time 24 h, mouse#1-3, read-out: in vivo PK raw, level per mouse
  concentration at 24 h: 0 nM
[3]; male, ICR, mouse, plasma, po, 10 mg/kg, mice, 10 mg/kg PO, read-out: AUClast after PO administration
  AUC(0-t): 22 ng·h/mL
[3]; [12]
  AUC(0-inf): 86 ng·h/mL
  MRT: 6.6 min
  clearance: 195 mL/min/kg
  half-life: 9 min
[3]; male, ICR, mouse, plasma, 1 mg/kg, IV, read-out: Vss
  Vd: 1.3 L/kg
[3]; [13]
  AUC(0-inf): 26 ng·h/mL
  MRT: 233 min
  Tmax: 10.2 min
  bioavailability: 3%
  half-life: 163 min
[3]; male, ICR, mouse, mice, 1 mg/kg IV, plasma, read-out: C0 after IV administration
  C0: 762 ng/mL
[3]; male, ICR, mouse, mice, 10 mg/kg PO, plasma, read-out: Cmax (oral bioavailability) after PO administration
  Cmax: 13 ng/mL
[3]; [14]
  in vivo PK raw, level per mouse: 459 and 369 and 455
  in vivo PK raw, level per mouse (µM): 1.094 µM and 1.349 µM
[3]; [15]
  in vivo PK raw, level per mouse: 103 and 104 and 127
  in vivo PK raw, level per mouse (µM): 0.3082 µM and 0.3764 µM
[3]; mg/kg IV, time 1 h, mouse#1-3
  in vivo PK raw, level per mouse: 10 and 13 and 14
  in vivo PK raw, level per mouse (µM): 0.03853 µM and 0.04149 µM
[3]; mg/kg IV, time 2 h, mouse#1-3
  in vivo PK raw, level per mouse: 2
  in vivo PK raw, level per mouse (µM): 0.005928 µM
[3]; mg/kg IV, time 4 h, mouse#1-3
  in vivo PK raw, level per mouse: 0
  in vivo PK raw, level per mouse (µM): 0 µM
[3]; mg/kg IV, time 6 h, mouse#1-3
  in vivo PK raw, level per mouse: 0
  in vivo PK raw, level per mouse (µM): 0 µM
[3]; mg/kg IV, time 8 h, mouse#1-3
  in vivo PK raw, level per mouse: 0
  in vivo PK raw, level per mouse (µM): 0 µM
[3]; mg/kg IV, time 24 h, mouse#1-3
  in vivo PK raw, level per mouse: 0
  in vivo PK raw, level per mouse (µM): 0 µM
[3]; mice, 1 mg/kg IV
  CL1/2 after IV administration: 0.15 h
[3]; mice, 10 mg/kg PO
  CL1/2 after PO administration: 2.71 h
[2]
  collagen I invasion across cancer cell lines (result in words): inhibited collagen I invasion only in bFGF-sensitive cell lines M059K, RT-112 and SW780

Reference: paper PMC10060354, “Discovery of a small molecule ligand of FRS2 that inhibits invasion and tumor growth” (Cellular Oncology, 2022)
